Results from patent publication US12459931B2, “Benzothiophene derivative regulator, preparation method therefor and use thereof” (Shanghai Hansoh Biomedical Co., Ltd., priority 2019, dated 2025).

Columns and labels:
[1] = system: Rats F344; assay: Pharmacodynamic model of active escape experiment in rats; format: in vivo; conditions: oral, dose 1 mg/kg, one hour before the test
Description: V. Pharmacodynamic Model of Active Escape Experiment in Rats
To evaluate the anti-schizophrenic effect of the compounds using the pharmacodynamic model of the active escape experiment in rats.
4. Formulation of the Vehicle and Compounds: • 4.1 Vehicle (0.5% CMC-Na+1% Tween80)
A certain mass (such as 1.0 g) of CMC-Na was weighed into a glass bottle, a certain volume (such as 200 mL) of purified water was added, and the resulting mixture was stirred to disperse evenly. 1% (v/v) Tween 80 was added according to the solution volume, and the resulting mixture was stirred overnight to obtain a homogeneous clear solution, which was stored at 2 to 8° C. for later use. • 4.2 Formulation of the compounds: […]
A formula amount of the compound was weighed, followed by the addition of a formula volume of 0.5% CMC-Na+1% Tween 80 solution. The compound solution was formulated before the administration, stored at 2 to 8° C., and used within 4 days.
The day before the compound screening test, a baseline test was performed. The test procedure was the same as 5.1.1 to 5.1.3, and the number of the baseline test was 20. The animals whose number of avoids reached 16 (80%) were grouped according to the number of avoids, 10 animals per group. The first group was administered with the vehicle orally, and the other groups were administered with the corresponding test compounds according to the experimental design. • 5.3 Compound screening test
The compound was administered orally (5 mL/kg) one hour before the test;
The test procedure was the same as 5.1.1 to 5.1.4, and the number of the test was 20.
The following data was collected by the software for data analysis: • Number of avoids of the animal; • Number of escape failures of the animal; • Escape latency of the animal;
All measurement data were expressed as mean±standard error (Mean±SEM), and analyzed by Graphpad 6 statistical software. The difference was considered to be significant when p<0.05.

[2] = Stability assay in liver microsome in vitro; format: in vitro ADME, Mouse
Description: IV. Stability Assay in Liver Microsome In Vitro
To evaluate the metabolic stability of the compounds of the present invention in liver microsome in vitro.
Formulation of the working solution of the compound: 2 μL of the stock solution of the compound was added to 998 μL of phosphate buffer, and the final concentration was 20 μM.
Formulation of the working solution of the control compound (7-hydroxycoumarin): The formulation was consistent with that of the compound. • 3.2. Formulation of the working solution of liver microsome
78.1 μL of 20 mg/mL microsome was diluted to 2.5 mL with 100 mM phosphate buffer and mixed well, and the final concentration was 0.625 mg/mL. • 3.3. Formulation of NADPH and UDPGA
33.3 mg of NADPH and 25.8 mg of UDPGA were weighed respectively, followed by the addition of 2 mL of 100 mM phosphate buffer. The final concentrations were 20 mM. • 3.4. Formulation of the channel-forming reagent (Alamethicin)
1 mg of Alamethicin was weighed, to which 200 μL of DMSO was added to obtain a 5 mg/mL solution. 10 μL of this solution was added to 990 μL of phosphate buffer (pH 7.4), and the final concentration was 50 μg/mL. • 3.5. Formulation of the reaction stop solution
Stop solution: Cold acetonitrile containing 100 ng/mL labetalol hydrochloride and 400 ng/mL tolbutamide was used as internal standards, and stored in a refrigerator at 2 to 8° C. • 3.6. Incubation procedure
400 μL of the formulated liver microsome, 25 μL of the working solution of the compound […] and 25 μL of Alamethicin (50 μg/mL) were added to a 96-well plate successively, which was then pre-incubated at 37° C. for 10 min. 50 μL of the formulated NADPH/UDPGA was added to initiate the reaction, and the plate was incubated at 37° C. The total volume of the reaction system was 500 μL. The final contents of the components were as follows:
[…] The resulting sample was centrifuged at 4000 g for 10 min, and the supernatant was collected for LC-MS/MS analysis.

[3] = molecular target: 5-HT2A receptor (Homo sapiens (Human), UniProt P28223); assay: Radioligand-receptor binding assay, 5-HT2A receptor ([3H]-Ketanserin); conditions: [3H]-Ketanserin 2 nM, human 5-HT2A receptor membrane; read-out: 5HT-2A binding activity IC50
Description: Determination of the Binding Ability of the Compounds of the Present Invention to 5-HT2A Receptor
The objective of this test example is to determine the affinity of the compounds for 5-HT2A receptor.
Assay buffer: 50 mM Tris-HCl pH 7.4, 4 mM CaCl2); wash solution: 50 mM Tris-HCl pH 7.4, stored at 4° C.; 0.5% PEI solution: 0.5 g PEI dissolve in 100 mL ddH2O, 4° C. storage of spare.
5 μL of the test compounds (0.005 nM to 100 nM, 10 concentrations in total) and 100 μL of buffer were added to a 96-well assay plate. 1.5 μL of cell membrane and 300 L of buffer were added to each well. The plate was shaken at 600 rpm for 5 min. A mixed solution of 100 μL of buffer and [^3H]-Ketanserin (the final concentration was 2 nM) was added to each well. The plate was shaken at 600 rpm for 5 min, and incubated at 27° C. for 30 min. The […]-96 GF/B filter plate pre-incubated with 0.5% PEI for 1 h was washed twice with the buffer (1 mL/well). The cell membrane suspension was added to the […]-96 GF/B filter plate, washed 4 times, and incubated at 55° C. for 10 min. 40 μL of ULTIMA GOLD was added to each well, and liquid scintillation counting was carried out.
(§1) The CPM (Counts per minute) values were determined by TopCount. […] The 10 concentrations of the compound were from 100 nM to 0.005 nM after 3-fold dilution of the reaction system. The percent inhibition rate and ten-point concentration data were fitted to the parametric nonlinear logistic equation by using GraphPad prism to calculate the IC50 values of the compound.

[4] = molecular target: Human Dopamine D3 Receptor (Homo sapiens (Human), UniProt P35462); assay: Radioligand-receptor binding assay, dopamine D3 receptor ([3H]-methylspiperone); conditions: [3H]-methylspiperone 0.5 nM, human D3 receptor membrane
Description: Determination of the Binding Ability of the Compounds of the Present Invention to Dopamine D3 Receptor
The objective of this test example is to determine the affinity of the compounds for dopamine D3 receptor.
Assay buffer: 50 mM Tris-HCl pH 7.4, 10 mM MgCl2; wash solution: 50 mM Tris-HCl pH 7.4, stored at 4° C.; 0.5% PEI solution: 0.5 g PEI dissolve in 100 mL ddH2O, 4° C. storage of spare.
5 μL of the test compounds (0.005 nM to 100 nM, 10 concentrations in total) and 100 μL of buffer were added to a 96-well assay plate. 1 μL of cell membrane and 300 μL of buffer were added to each well, and the plate was shaken at 600 rpm for 5 min. A mixed solution of 100 μL of buffer and [^3H]-methylspiperone (the final concentration was 0.5 nM) was added to each well. The plate was shaken at 600 rpm for 5 min, and incubated at 27° C. for 30 min. The […]-96 GF/B filter plate pre-incubated with 0.5% PEI for 1 h was washed twice with the buffer (1 mL/well). The cell membrane suspension was added to the […]-96 GF/B filter plate, washed 4 times, and incubated at 55° C. for 10 min. 40 μL of ULTIMA GOLD was added to each well, and liquid scintillation counting was carried out.
as §1

Human Dopamine D3 Receptor, sequence (P35462 whole entry): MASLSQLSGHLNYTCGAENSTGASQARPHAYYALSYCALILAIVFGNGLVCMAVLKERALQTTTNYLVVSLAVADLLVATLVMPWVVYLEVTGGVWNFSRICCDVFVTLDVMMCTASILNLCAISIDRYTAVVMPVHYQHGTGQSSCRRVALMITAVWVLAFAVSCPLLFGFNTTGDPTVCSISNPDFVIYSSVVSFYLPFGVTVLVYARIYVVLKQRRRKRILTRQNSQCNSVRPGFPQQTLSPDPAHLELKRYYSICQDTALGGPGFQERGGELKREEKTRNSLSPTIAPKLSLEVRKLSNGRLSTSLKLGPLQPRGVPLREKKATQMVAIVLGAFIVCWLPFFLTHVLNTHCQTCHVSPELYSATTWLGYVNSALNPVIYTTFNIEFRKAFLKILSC
5-HT2A receptor, sequence (P28223 whole entry): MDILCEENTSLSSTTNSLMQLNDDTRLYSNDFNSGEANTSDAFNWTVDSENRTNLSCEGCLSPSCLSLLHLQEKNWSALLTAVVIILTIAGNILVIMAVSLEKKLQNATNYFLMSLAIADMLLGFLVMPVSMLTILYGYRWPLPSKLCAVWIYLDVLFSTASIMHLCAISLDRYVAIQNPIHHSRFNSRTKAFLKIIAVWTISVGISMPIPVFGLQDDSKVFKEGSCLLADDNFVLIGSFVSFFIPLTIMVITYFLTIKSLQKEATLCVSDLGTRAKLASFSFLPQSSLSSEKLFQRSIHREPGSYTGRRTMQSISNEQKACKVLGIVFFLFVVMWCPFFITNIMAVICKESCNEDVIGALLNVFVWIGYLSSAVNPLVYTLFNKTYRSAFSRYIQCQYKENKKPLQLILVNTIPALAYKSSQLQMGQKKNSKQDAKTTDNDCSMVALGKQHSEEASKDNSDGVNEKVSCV

Row | Compound | IC50 [3] | IC50 [4] | also measured
1 | CN(C)C(=O)N[C@H]1CC[C@H](CCN2CCN(c3cccc(Cl)c3Cl)CC2)CC1 [Cariprazine, reference compound] |  |  | CAR value [1]: 45.5%; EF [1]: 5.5%; half-life at 1 μM ([2]; CD-1, liver microsomes, pH 7.4, Mouse liver microsome 0.5 mg/mL, compound 1 μM, NADPH/UDPGA, read-out: Half life (t1/2)): 1.1 h; microsomal CLint at 1 μM ([2]; CD-1, liver microsomes, pH 7.4, Mouse liver microsome, note: Slow <8.8, Rapid >48.0, read-out: Intrinsic clearance rate (CLint)): 21.1 µL/min/mg; Remaining (%, 120 min) ([2]; Mouse liver microsome, 120 min): 30.5%
2 | O=C(N[C@H]1CC[C@H](CCN2CCN(c3cccc4sccc34)CC2)CC1)N1CC(F)(F)C1 [Example 2, N-(Trans-4-(2-(4-(benzo[b]thiophen-4-yl)piperazin-1-yl)ethyl)cyclohexyl)-3,3-difluoro azetidine-1-carboxamide] | 3.4 nM | 0.76 nM | 
3 | CC1(O)CN(C(=O)N[C@H]2CC[C@H](CCN3CCN(c4cccc5sccc45)CC3)CC2)C1 [Example 3, N-(Trans-4-(2-(4-(benzo[b]thiophen-4-yl)piperazin-1-yl)ethyl)cyclohexyl)-3-hydroxy-3-methylazetidine-1-carboxamide] |  | 1.59 nM | 
4 | COC1(C)CN(C(=O)N[C@H]2CC[C@H](CCN3CCN(c4cccc5sccc45)CC3)CC2)C1 [Example 4, N-(Trans-4-(2-(4-(benzo[b]thiophen-4-yl)piperazin-1-yl)ethyl)cyclohexyl)-3-methoxy-3-methylazetidine-1-carboxamide] | 0.26 nM | 1.52 nM | 
5 | CN(C)C(=O)N[C@H]1CC[C@](F)(CCN2CCN(c3cccc4sccc34)CC2)CC1 [Example 15, 3-(Cis-4-(2-(4-(benzo[b]thiophen-4-yl)piperazin-1-yl)ethyl)-4-fluorocyclohexyl)-1,1-dimethylurea] |  | 4.25 nM | 
6 | CCNC(=O)N[C@H]1CC[C@](F)(CCN2CCN(c3cccc4sccc34)CC2)CC1 [Example 16, 1-(Cis-4-(2-(4-(benzo[b]thiophen-4-yl)piperazin-1-yl)ethyl)-4-fluorocyclohexyl)-3-ethylurea] | 2.07 nM | 0.57 nM | 
7 | CN(C)C(=O)NC1CCC(CCN2CCN(c3cccc4sccc34)CC2)CC1F (stereo not shown) [Example 23, 3-(4-(2-(4-(Benzo[b]thiophen-4-yl)piperazin-1-yl)ethyl)-2-fluorocyclohexyl)-1,1-dimethylurea] | 6.45 nM | 2.69 nM | 
8 | C[C@@H]1CN(c2cccc3sccc23)CCN1CC[C@H]1CC[C@H](Nc2ncc(C#N)cn2)CC1 [Example 44, 2-((Trans-4-(2-((R)-4-(benzo[b]thiophen-4-yl)-2-methylpiperazin-1-yl)ethyl)cyclohexyl)amino)pyrimidine-5-carbonitrile] | 2.59 nM | 1.58 nM | 
9 | O=C(N[C@H]1CC[C@H](CCN2CCN(c3cccc4sccc34)CC2)CC1)c1ccco1 [Example 45, N-(Trans-4-(2-(4-(benzo[b]thiophen-4-yl)piperazin-1-yl)ethyl)cyclohexyl)furan-2-carboxamide] | 0.63 nM | 0.12 nM | 
10 | Cc1ccc(C(=O)N[C@H]2CC[C@H](CCN3CCN(c4cccc5sccc45)CC3)CC2)o1 [Example 46, N-(Trans-4-(2-(4-(benzo[b]thiophen-4-yl)piperazin-1-yl)ethyl)cyclohexyl)-5-methylfuran-2-carboxamide] | 0.91 nM | 0.6 nM | 
11 | COCC(=O)N[C@H]1CC[C@H](CCN2CCN(c3cccc4sccc34)CC2)CC1 [Example 47, N-(Trans-4-(2-(4-(benzo[b]thiophen-4-yl)piperazin-1-yl)ethyl)cyclohexyl)-2-methoxyacetamide] | 0.96 nM | 0.47 nM | 
12 | CC(C)(O)CC(=O)N[C@H]1CC[C@H](CCN2CCN(c3cccc4sccc34)CC2)CC1 [Example 48, N-(Trans-4-(2-(4-(benzo[b]thiophen-4-yl)piperazin-1-yl)ethyl)cyclohexyl)-3-hydroxy-3-methylbutanamide] | 0.83 nM | 0.36 nM | 
13 | Fc1cnc(N[C@H]2CC[C@H](CCN3CCN(c4cccc5sccc45)CC3)CC2)nc1 [Example 49, N-(Trans-4-(2-(4-(benzo[b]thiophen-4-yl)piperazin-1-yl)ethyl)cyclohexyl)-5-fluoropyrimidin-2-amine] | 0.34 nM | 2.43 nM | 
14 | CON(C)C(=O)N[C@H]1CC[C@H](CCN2CCN(c3cccc4sccc34)CC2)CC1 [Example 50, 3-(Trans-4-(2-(4-(benzo[b]thiophen-4-yl)piperazin-1-yl)ethyl)cyclohexyl)-1-methoxy-1-methylurea] | 2.16 nM | 1.29 nM | 
15 | O=C(NC1CCC(CCN2CCN(c3cccc4sccc34)CC2)CC1F)c1ccco1 (stereo not shown) [Example 51, N-(4-(2-(4-(Benzo[b]thiophen-4-yl)piperazin-1-yl)ethyl)-2-fluorocyclohexyl)furan-2-carboxamide] | 0.9 nM | 0.76 nM | 
